Test: ESI positive response factor (isotope-corrected peak area per molar concentration) in SFC/ESI/HRMS (area units per M); higher = higher ionization efficiency
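Further: standards in acetonitrile/water run in triplicate on a zwitterionic HILIC column, CO2–methanol gradient containing 20 mmol/L ammonium acetate, postcolumn makeup flow, Orbitrap full-scan detection.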

SMILES | ESI positive response factor (0.35 µM) | ESI positive response factor (0.0175 µM) | ESI positive response factor (0.035 µM) | ESI positive response factor (0.0875 µM) | ESI positive response factor (0.175 µM) | other results
COc1ccc(C(=O)c2ccccc2)c(O)c1 [Oxybenzone] | – | 1.73e+17 | 1.88e+17 | 1.67e+17 | – | –
CC(C)C[C@H](CN)CC(=O)O [Pregabalin] | 1.8e+16 | – | – | 1.96e+16 | 1.55e+16 | ESI positive response factor (0.875 µM): 1.58e+16; ESI positive response factor (1.75 µM): 1.57e+16
COCC(=O)N(c1c(C)cccc1C)N1CCOC1=O [Oxadixyl] | 1.48e+17 | 1.33e+17 | 1.43e+17 | 1.57e+17 | 1.23e+17 | –
CN(C)C(=O)C(c1ccccc1)c1ccccc1 [Diphenamid] | 1.13e+17 | 1.12e+17 | 1.02e+17 | 1.09e+17 | 9.79e+16 | –
c1ccc2[nH]nnc2c1 [1H-Benzotriazol] | 1.37e+16 | – | 7.96e+15 | 1.11e+16 | 1.18e+16 | –
CON(C)C(=O)Nc1ccc(Br)cc1 [Metobromuron] | – | – | – | – | – | ESI positive response factor (0.0122 µM): 2.18e+17; ESI positive response factor (0.0244 µM): 2.29e+17; ESI positive response factor (0.061 µM): 2.07e+17; ESI positive response factor (0.122 µM): 1.95e+17
CN(C)CCC=C1c2ccccc2CCc2ccccc21 [Amitriptyline] | 4.54e+17 | – | 4.1e+17 | 3.69e+17 | 4.36e+17 | –
O=C1CCCN1 [2-Pyrrolidinone] | 8.52e+15 | – | – | – | 8.26e+15 | ESI positive response factor (0.875 µM): 1.07e+16; ESI positive response factor (1.75 µM): 8.7e+15
Nc1cccc2c1CN(C1CCC(=O)NC1=O)C2=O (centres undefined) [Lenalidomid] | – | – | – | – | – | ESI positive response factor (0.244 µM): 4.65e+14; ESI positive response factor (0.61 µM): 5.58e+14; ESI positive response factor (1.22 µM): 7.56e+14
Cc1ccc(NC(=O)N(C)C)cc1Cl [Chlortoluron] | 1.4e+17 | 1.29e+17 | 1.32e+17 | 1.48e+17 | 1.28e+17 | –
CCCCC(CC)CN (centres undefined) [2-Ethyl-1-hexylamine] | 1.94e+16 | – | – | – | 2.01e+16 | –
COc1ccc2c(c1)c(CC(=O)O)c(C)n2C(=O)c1ccc(Cl)cc1 [Indomethacin] | – | – | – | – | – | ESI positive response factor (0.122 µM): 1.45e+16; ESI positive response factor (0.244 µM): 1.53e+16; ESI positive response factor (0.61 µM): 1.99e+16
CC(=O)NCCNC(C)=O [N,N'-Ethylenebisacetamide] | 3.89e+16 | – | 4.39e+16 | 4.04e+16 | 3.9e+16 | –
O=C1NCCCN1 [N,N?-Trimethyleneurea] | – | – | – | – | – | ESI positive response factor (0.0122 µM): 2.53e+16; ESI positive response factor (0.0244 µM): 3.89e+16; ESI positive response factor (0.061 µM): 3.96e+16
CCSC(=O)N1CCCCCC1 [Molinate] | – | – | – | – | – | ESI positive response factor (0.061 µM): 1.56e+16; ESI positive response factor (0.122 µM): 1.94e+16; ESI positive response factor (0.244 µM): 2e+16; ESI positive response factor (0.61 µM): 1.59e+16; ESI positive response factor (1.22 µM): 1.93e+16
COCC(=O)Nc1c(I)c(C(=O)NCC(O)CO)c(I)c(C(=O)N(C)CC(O)CO)c1I (centres undefined) [Iopromide] | – | – | – | – | – | ESI positive response factor (0.61 µM): 1.19e+15; ESI positive response factor (1.22 µM): 1.27e+15
CCNc1nc(Cl)nc(NC(C)C)n1 [Atrazine] | – | 1.04e+18 | 1.07e+18 | 9.8e+17 | 9.03e+17 | –
C[N+]1(C)[C@H]2CC(OC(=O)C(CO)c3ccccc3)C[C@H]1[C@H]1O[C@H]12 (some centres undefined) [Methyl scopolamine] | – | 6.75e+17 | 8.31e+17 | 7.49e+17 | – | –
COC(=O)NS(=O)(=O)c1ccc(N)cc1 [Asulam] | 1.46e+16 | – | 1.24e+16 | 1.31e+16 | 1.29e+16 | ESI positive response factor (0.875 µM): 1.49e+16; ESI positive response factor (1.75 µM): 1.43e+16
CCOc1nc2cccc(C(=O)O)c2n1Cc1ccc(-c2ccccc2-c2nnn[nH]2)cc1 [Candesartan] | 8.92e+16 | 5.17e+16 | 8.14e+16 | 8.12e+16 | 8.2e+16 | ESI positive response factor (0.875 µM): 9.01e+16; ESI positive response factor (1.75 µM): 8.46e+16
Fc1ccc(Oc2ccnc3cc(Cl)cc(Cl)c23)cc1 [Quinoxyfen] | – | 9.87e+17 | 1.08e+18 | 9.74e+17 | 9.43e+17 | –
OCCN(CCO)CCO [Triethanolamine] | 8.66e+16 | 8.84e+16 | 8.88e+16 | 8.78e+16 | 8.76e+16 | –
CC(O)CN(CC(C)O)CC(C)O (centres undefined) [triisopropanolamine] | 3.51e+17 | – | 1.75e+17 | 2.93e+17 | 3.36e+17 | –
O=c1ccnc[nH]1 [4-Pyrimidinol] | – | 1.78e+16 | 2.97e+16 | – | – | –
NC(=O)N=C(N)N [Guanylurea] | – | – | – | – | – | ESI positive response factor (0.244 µM): 2.7e+15; ESI positive response factor (0.61 µM): 2.53e+15; ESI positive response factor (1.22 µM): 2.64e+15
O=S(=O)(O)c1ccc2nc(-c3ccccc3)[nH]c2c1 [2-Phenyl-5-benzimidazole] | 3.87e+15 | – | – | 7.22e+14 | – | ESI positive response factor (0.875 µM): 4.7e+15; ESI positive response factor (1.75 µM): 4.96e+15

The next lines start with results.

ESI positive response factor (0.35 µM) | SMILES | ESI positive response factor (0.0175 µM) | ESI positive response factor (0.035 µM) | ESI positive response factor (0.0875 µM) | ESI positive response factor (0.175 µM) | other results
4.69e+17 | CN1C(C)(C)CC(O)CC1(C)C [1,2,2,6,6-Pentamethyl-4-piperidinol] | 4.91e+17 | 5.26e+17 | 5.02e+17 | 4.63e+17 | ESI positive response factor (0.875 µM): 4.18e+17; ESI positive response factor (1.75 µM): 3.68e+17
3.92e+16 | Nc1nc(N)c2nc(CO)cnc2n1 [2,4-Diamino-6-(hydroxymethyl)pteridine] | 2.75e+16 | 4.33e+16 | 4.27e+16 | 3.56e+16 | ESI positive response factor (0.875 µM): 4.05e+16
5.75e+15 | c1ccc(CC2=NCCN2)cc1 [2-Benzylimidazoline] | – | – | – | 4.79e+15 | ESI positive response factor (0.875 µM): 5.13e+15; ESI positive response factor (1.75 µM): 4.96e+15
1.08e+17 | CCC1(c2ccccc2)C(=O)NCNC1=O [Primidone] | 8.94e+16 | 1.09e+17 | 1.15e+17 | 9.69e+16 | –
3.31e+15 | Cc1cc2nc3c(=O)[nH]c(=O)nc-3n(CC(O)C(O)C(O)CO)c2cc1C (centres undefined) [Riboflavin] | – | – | – | 2.66e+15 | ESI positive response factor (0.875 µM): 3.41e+15; ESI positive response factor (1.75 µM): 3.53e+15

Reference: the supplement of paper PMC10326909
